Experimental data reported in article PMC10698194 (Nature Communications, 2023).
Where “and” joins values, the source holds several entries; their conditions need not be identical. Equal values may be shown once. Read-outs that look alike come from different tables or passages of the source. Bridge positions count the residues as written; N and C are the ends. Square brackets hold non-standard residues; d marks the D form. Peptide text beside a SMILES is read from it. * marks the point of attachment. X1 = C=CCN1CC[C@]23c4c5ccc(O)c4O[C@H]2[C@H](N*)CC[C@@]3(O)[C@H]1C5

Tests used:
mouse KOR, GαoA = mouse KOR, GαoA (Mus musculus, UniProt P33534); experiment: TRUPATH BRET G protein assay, GαoA; format: cell-based; conditions: read-out: Emax (%) GαoA
human KOR E297A = target: T1, human KOR E297A (Homo sapiens, UniProt P41145, E297A); format: cell-based; conditions: HEK-293T, KOR E297A
T1 construct: FLAG; expressed in transfected cells; host or cells: HEK293T

human KOR K227A = target: T2, human KOR K227A (Homo sapiens, UniProt P41145, K227A); experiment: BRET β-arrestin-2 biosensor assay; format: cell-based
T2 construct: FLAG; expressed in transfected cells; host or cells: HEK293 / HEK293T, transient

human KOR Q115A = target: T3, human KOR Q115A (Homo sapiens, UniProt P41145, Q115A); format: cell-based; conditions: HEK-293T
T3 construct: FLAG; expressed in transfected cells; host or cells: HEK293 / HEK293T, transient

human KOR H304A [1] = target: T4, human KOR H304A (Homo sapiens, UniProt P41145, H304A); format: cell-based; conditions: HEK-293T
T4 construct: FLAG; expressed in transfected cells; host or cells: HEK293T

mouse MOR = target: T5, mouse MOR (Mus musculus, UniProt P42866); experiment: Schild regression vs DAMGO in cAMP assay, HEK293 cells; format: cell-based; conditions: for log (A'/A-1): Schild plot Figure S14c; for average functional affinity: from pA2
T5 construct: expressed in transfected cells

mouse KOR, Gαi1 = mouse KOR, Gαi1 (Mus musculus, UniProt P33534); experiment: TRUPATH BRET G protein assay, Gαi1; format: cell-based; conditions: read-out: Emax (%) Gαi1
mouse KOR, GαoB = mouse KOR, GαoB (Mus musculus, UniProt P33534); experiment: TRUPATH BRET G protein assay, GαoB; format: cell-based; conditions: read-out: Emax (%) GαoB
human KOR E209A = target: T6, human KOR E209A (Homo sapiens, UniProt P41145, E209A); experiment: BRET β-arrestin-2 biosensor assay; format: cell-based; conditions: KOR E209A
T6 construct: FLAG; expressed in transfected cells; host or cells: HEK293 / HEK293T, transient

male SWISS mice [2] = experiment: CFA-induced inflammatory hyperalgesia, Hargreaves test; format: in vivo, mouse; conditions: for CFA-induced inflammatory hyperalgesia (paw withdrawal latency): individual mice, listed as DNCP-ß-NalA (1)
Description: CFA-induced inflammatory hyperalgesia was induced in male SWISS mice (8–10 weeks old, 30–35 g body weight, n = 53 mice) by s.c. injection of 20 µL emulsified CFA (1 mg mL^−1) into the plantar surface of the right hindpaw under brief isoflurane anesthesia. Nociceptive testing was performed 72 h after inoculation with CFA. Hindpaws withdrawal latencies to thermal stimulation were measured using the Hargreaves test[84] with an analgesiometer (Ugo Basile S.R.L., Varese, Italy). Male mice were habituated in individual Plexiglas boxes positioned on a glass surface (Ugo Basile S.R.L., Varese, Italy) for three days prior to the inoculation with CFA. A movable infrared generator (30% intensity) located under the glass floor was focused onto the plantar surface of the hindpaw and switched on to heat. Onset of the radiant stimulus triggered a timer, which was stopped by subsequent paw movement. To prevent tissue damage, a cut-off time of 20 s was imposed. […] The paw withdrawal latencies to thermal stimulus was expressed in seconds.

human KOR D138A = target: T7, human KOR D138A (Homo sapiens, UniProt P41145, D138A); experiment: cAMP inhibition assay normalized to salvinorin A; format: cell-based
T7 construct: expressed in transfected cells

human KOR H304A [3] = target: T4, human KOR H304A; experiment: BRET β-arrestin-2 biosensor assay; format: cell-based
male SWISS mice [4] = experiment: Formalin test (pain behavior, phase II); format: in vivo, mouse; conditions: for Formalin test (duration of pain behaviour): individual mice, listed as DNCP-ß-NalA (1)
mouse KOR = mouse KOR (Mus musculus, UniProt P33534); experiment: cell-based; design: expressed in transfected cells; host or cells: HEK293T, transient; conditions: HEK-293T, read-out: Emax β-arrestin-2 recruitment
human KOR [5] = target: T8, human KOR (Homo sapiens, UniProt P41145); experiment: cell-based; design: expressed in transfected cells; host or cells: HEK293, transient; conditions: HEK293, read-out: Emax β-arrestin-1 recruitment
human KOR [6] = target: T8, human KOR; experiment: [35S]GTPγS binding assay, CHO membranes; format: biochemical; design: expressed in transfected cells
human KOR F293A = target: T9, human KOR F293A (Homo sapiens, UniProt P41145, F293A); format: cell-based; conditions: HEK-293T
T9 construct: FLAG; expressed in transfected cells; host or cells: HEK293 / HEK293T, transient

mouse KOR, Gαz = mouse KOR, Gαz (Mus musculus, UniProt P33534); experiment: TRUPATH BRET G protein assay, Gαz; format: cell-based; conditions: Gαz subtype
[7] = Serum stability assay (HPLC)
Description: Blood was drawn from healthy volunteers devoid of any medication for 14 days from the antecubital vein using 21 G needles and collected in a serum clot activator tube (4 mL tubes, Greiner bio-one). […] Volunteers gave written informed consent before blood donation. […] Blood samples were collected into Vacuette® clot activator tubes (Greiner Bio-One, Austria). After clotting of about 2 h, the samples were centrifuged at 2200 × g for 15 min at 22 °C. The serum was removed and centrifuged again to remove lipids and cell particles at 16,000 × g at 4 °C for 20 min. […] The samples were incubated at 37 °C under continuous shaking at 300 rotations-per-minute. […] The samples were mixed well and incubated on ice for 10 min. For the protein precipitation, 30 µL of a 20% (w/v) trichloroacetic acid was added and incubated on ice for 15 min. The clear supernatant was harvested by centrifugation at 16,000 × g at 4 °C for 20 min and this sample was used for HPLC analysis. The chromatography HPLC system was a ThermoFisher Ultimate 3000 equipped with a pump, autosampler and single wavelength detector. […] The remaining peptide was calculated relative to the AUC at time point zero. The data points were fitted to a one-phase decay function and to determine the resulting half-life of the peptide in serum.
0.1% trifluoroacetic acid in water and acetonitrile/water trifluoroacetic acid 90/10/0.1% (v/v/v) with a
linear separation gradient over 30 min.

[8] = authors' response in peer review file

T5 sequence (P42866 whole entry): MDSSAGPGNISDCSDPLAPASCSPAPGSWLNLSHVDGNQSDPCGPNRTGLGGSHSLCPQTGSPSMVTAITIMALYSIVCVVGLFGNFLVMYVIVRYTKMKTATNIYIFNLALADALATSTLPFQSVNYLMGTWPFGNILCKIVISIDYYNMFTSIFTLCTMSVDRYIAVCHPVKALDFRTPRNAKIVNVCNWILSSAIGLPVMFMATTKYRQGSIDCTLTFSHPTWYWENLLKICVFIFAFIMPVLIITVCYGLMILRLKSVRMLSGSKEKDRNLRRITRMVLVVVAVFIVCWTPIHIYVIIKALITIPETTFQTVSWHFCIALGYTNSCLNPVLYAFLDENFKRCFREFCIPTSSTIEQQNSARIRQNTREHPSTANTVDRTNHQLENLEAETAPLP
T8 sequence (P41145 whole entry): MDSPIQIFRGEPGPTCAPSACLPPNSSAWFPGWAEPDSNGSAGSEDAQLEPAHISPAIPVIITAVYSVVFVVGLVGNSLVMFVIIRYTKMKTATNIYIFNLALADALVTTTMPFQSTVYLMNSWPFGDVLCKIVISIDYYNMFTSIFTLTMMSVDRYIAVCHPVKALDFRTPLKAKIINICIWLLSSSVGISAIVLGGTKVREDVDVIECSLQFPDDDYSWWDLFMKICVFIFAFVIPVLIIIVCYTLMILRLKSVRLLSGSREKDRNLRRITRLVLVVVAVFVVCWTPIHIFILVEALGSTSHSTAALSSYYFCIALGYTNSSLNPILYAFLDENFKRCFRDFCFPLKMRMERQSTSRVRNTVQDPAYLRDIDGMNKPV
T7 sequence (P41145 whole entry D138A): as the sequence (P41145 whole entry) above, with D138A counted along it
T4 sequence (P41145 whole entry H304A): as the sequence (P41145 whole entry) above, with H304A counted along it
Chain of mouse KOR (P33534 whole entry): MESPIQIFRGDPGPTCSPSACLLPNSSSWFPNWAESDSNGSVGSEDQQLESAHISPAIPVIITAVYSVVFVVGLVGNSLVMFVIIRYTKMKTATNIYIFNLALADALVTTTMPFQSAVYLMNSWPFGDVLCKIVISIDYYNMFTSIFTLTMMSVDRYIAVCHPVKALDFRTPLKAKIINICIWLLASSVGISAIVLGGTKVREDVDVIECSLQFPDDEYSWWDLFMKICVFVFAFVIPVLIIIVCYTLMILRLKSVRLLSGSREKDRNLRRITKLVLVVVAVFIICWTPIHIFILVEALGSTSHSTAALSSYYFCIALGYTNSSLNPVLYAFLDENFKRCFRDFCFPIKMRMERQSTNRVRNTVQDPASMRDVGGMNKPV
Chain of mouse KOR (P32121 whole entry partner): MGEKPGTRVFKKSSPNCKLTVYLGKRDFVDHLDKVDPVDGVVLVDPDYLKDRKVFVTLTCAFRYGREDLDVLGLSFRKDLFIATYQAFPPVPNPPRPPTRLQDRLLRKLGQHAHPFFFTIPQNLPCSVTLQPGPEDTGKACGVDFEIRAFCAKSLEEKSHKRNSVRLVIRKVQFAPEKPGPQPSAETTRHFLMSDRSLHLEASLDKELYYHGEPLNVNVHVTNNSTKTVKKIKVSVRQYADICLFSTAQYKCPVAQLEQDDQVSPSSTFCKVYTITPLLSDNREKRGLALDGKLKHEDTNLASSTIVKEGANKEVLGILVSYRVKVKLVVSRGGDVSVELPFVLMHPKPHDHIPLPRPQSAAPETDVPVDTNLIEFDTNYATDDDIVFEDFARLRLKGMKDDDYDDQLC
Chain of mouse KOR, Gαz (P33534 whole entry): as the sequence (P33534 whole entry) above
Chain of mouse KOR, Gαz (P19086 2-355 partner): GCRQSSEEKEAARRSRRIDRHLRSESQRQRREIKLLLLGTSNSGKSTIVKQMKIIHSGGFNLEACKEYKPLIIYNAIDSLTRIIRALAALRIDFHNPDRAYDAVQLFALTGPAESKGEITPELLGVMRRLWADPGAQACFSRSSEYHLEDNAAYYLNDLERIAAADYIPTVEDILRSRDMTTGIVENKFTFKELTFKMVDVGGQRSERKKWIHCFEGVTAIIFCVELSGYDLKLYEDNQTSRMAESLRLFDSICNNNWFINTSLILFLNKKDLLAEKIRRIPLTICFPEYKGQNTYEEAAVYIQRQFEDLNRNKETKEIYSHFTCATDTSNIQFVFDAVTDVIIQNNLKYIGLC
Chain of mouse KOR, Gαi1 (P33534 whole entry): as the sequence (P33534 whole entry) above
Chain of mouse KOR, Gαi1 (P63096 2-354 partner): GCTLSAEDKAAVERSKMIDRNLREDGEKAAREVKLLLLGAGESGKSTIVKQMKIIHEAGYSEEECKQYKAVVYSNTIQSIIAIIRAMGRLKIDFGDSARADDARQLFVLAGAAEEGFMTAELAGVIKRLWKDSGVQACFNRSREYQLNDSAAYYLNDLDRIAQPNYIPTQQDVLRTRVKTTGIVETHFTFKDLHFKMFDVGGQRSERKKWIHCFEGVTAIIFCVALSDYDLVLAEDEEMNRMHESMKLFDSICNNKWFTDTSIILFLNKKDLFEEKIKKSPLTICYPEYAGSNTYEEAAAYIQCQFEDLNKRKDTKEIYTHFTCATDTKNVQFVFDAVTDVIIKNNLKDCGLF
Chain of mouse KOR, GαoB (P33534 whole entry): as the sequence (P33534 whole entry) above
Chain of mouse KOR, GαoB (P09471 2-354 partner): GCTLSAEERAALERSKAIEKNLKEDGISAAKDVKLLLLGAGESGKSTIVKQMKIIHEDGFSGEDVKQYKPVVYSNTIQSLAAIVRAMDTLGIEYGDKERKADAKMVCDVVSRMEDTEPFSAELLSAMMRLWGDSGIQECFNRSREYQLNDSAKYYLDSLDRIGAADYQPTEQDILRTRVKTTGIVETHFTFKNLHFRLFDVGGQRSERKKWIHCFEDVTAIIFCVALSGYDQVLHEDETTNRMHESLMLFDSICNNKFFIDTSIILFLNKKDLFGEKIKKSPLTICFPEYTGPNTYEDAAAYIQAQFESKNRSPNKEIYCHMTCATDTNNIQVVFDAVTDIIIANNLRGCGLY
Chain of mouse KOR, GαoA (P33534 whole entry): as the sequence (P33534 whole entry) above
Chain of mouse KOR, GαoA (P09471 2-354 partner): as the sequence (P09471 2-354 partner) above
T1 sequence (P41145 whole entry E297A): as the sequence (P41145 whole entry) above, with E297A counted along it
T2 sequence (P41145 whole entry K227A): as the sequence (P41145 whole entry) above, with K227A counted along it
T9 sequence (P41145 whole entry F293A): as the sequence (P41145 whole entry) above, with F293A counted along it
T3 sequence (P41145 whole entry Q115A): as the sequence (P41145 whole entry) above, with Q115A counted along it
T6 sequence (P41145 whole entry E209A): as the sequence (P41145 whole entry) above, with E209A counted along it

Structure (SMILES): C=CCN1CC[C@]23c4c5ccc(O)c4O[C@H]2[C@H](NC(=O)[C@@H](Cc2ccccc2)NC(=O)[C@@H](NC(=O)[C@@H]2CSCC(=O)N[C@@H](Cc4ccc(O)cc4)C(=O)N[C@@H](C)C(=O)N[C@H](Cc4ccc(O)cc4)C(=O)N[C@@H]([C@@H](C)O)C(=O)N[C@@H]([C@@H](C)O)C(=O)N2)[C@@H](C)O)CC[C@@]3(O)[C@H]1C5 [DNCP-β-NalA(1)] ({CH2CO}-YA[dY]TTCT[dF]-X1; thioether N-6)
- Emax (mouse KOR, GαoA): 56 ± 7%
- Emax (human KOR E297A): 96.28 ± 0.53%
- Emax (human KOR K227A): 16.9 ± 2.26%
- Emax (human KOR Q115A): 90.2 ± 1.46%
- Emax (human KOR H304A [1]): 92.57 ± 0.43%
- log (A'/A-1) (mouse MOR; log B -6.5): 2.497
- log (A'/A-1) (mouse MOR; log B -7): 1.821
- log (A'/A-1) (mouse MOR; log B -7.5): 1.578
- log (A'/A-1) (mouse MOR; log B -8): 1.074
- average functional affinity (mouse MOR): 0.8 nM
- average functional affinity (mouse MOR; [8]): 0.794 nM
- Schild linear regression slope (mouse MOR; vs DAMGO): 0.9
- Emax (mouse KOR, Gαi1): 81%
- Emax (mouse KOR, GαoB): 76 ± 6%
- Emax (human KOR E209A): 87.3 ± 1.31%
- CFA-induced inflammatory hyperalgesia (paw withdrawal latency) (male SWISS mice [2]; 0.4 µmol/kg, time 0.5 h): 4.5 s and 3.8 s and 3.4 s and 4.3 s and 3.3 s and 4.6 s
- CFA-induced inflammatory hyperalgesia (paw withdrawal latency) (male SWISS mice [2]; 0.4 µmol/kg, time 1 h): 4.1 s and 5.3 s and 2.8 s and 3.2 s and 3 s and 2.4 s
- CFA-induced inflammatory hyperalgesia (paw withdrawal latency) (male SWISS mice [2]; 0.4 µmol/kg, time 2 h): 5.2 seconds and 3.9 seconds and 3.8 seconds and 3.4 seconds (2×) and 3.2 seconds
- CFA-induced inflammatory hyperalgesia (paw withdrawal latency) (male SWISS mice [2]; 0.4 µmol/kg, time 3 h): 4.6 seconds and 3.9 seconds and 4.1 seconds and 3.4 seconds (2×) and 2.9 seconds
- CFA-induced inflammatory hyperalgesia (paw withdrawal latency) (male SWISS mice [2]; 0.4 µmol/kg, time 4 h): 4 s and 3.6 s and 3.4 s and 3 s and 3.2 s and 2.7 s
- CFA-induced inflammatory hyperalgesia (paw withdrawal latency) (male SWISS mice [2]; 0.8 µmol/kg, time 0.5 h): 3.8 s and 4.7 s and 5.2 s and 5.9 s and 4 s and 4.4 s
- CFA-induced inflammatory hyperalgesia (paw withdrawal latency) (male SWISS mice [2]; 0.8 µmol/kg, time 1 h): 3.4 seconds and 3.5 seconds (2×) and 4.2 seconds and 3.8 seconds and 3.6 seconds
- CFA-induced inflammatory hyperalgesia (paw withdrawal latency) (male SWISS mice [2]; 0.8 µmol/kg, time 2 h): 2.7 seconds and 3.7 seconds and 3.9 seconds (2×) and 3.4 seconds and 4 seconds
- CFA-induced inflammatory hyperalgesia (paw withdrawal latency) (male SWISS mice [2]; 0.8 µmol/kg, time 3 h): 3.5 seconds (3×) and 3.1 seconds (2×) and 2.9 seconds
- CFA-induced inflammatory hyperalgesia (paw withdrawal latency) (male SWISS mice [2]; 0.8 µmol/kg, time 4 h): 2.6 seconds and 3.4 seconds and 3 seconds and 3.2 seconds and 3.1 seconds (2×)
- CFA-induced inflammatory hyperalgesia (paw withdrawal latency) (male SWISS mice [2]; 0.8 µmol/kg, time BL): 10.2 s and 11.3 s and 9.9 s and 10.1 s and 10.3 s
- CFA-induced inflammatory hyperalgesia (paw withdrawal latency) (male SWISS mice [2]; 1.9 µmol/kg, time 0.5 h): 4.2 s and 5.6 s and 7.4 s and 7.3 s and 7.2 s and 5.3 s
- CFA-induced inflammatory hyperalgesia (paw withdrawal latency) (male SWISS mice [2]; 1.9 µmol/kg, time 1 h): 3.9 seconds and 4.5 seconds (2×) and 6.6 seconds and 5 seconds and 3.5 seconds
- CFA-induced inflammatory hyperalgesia (paw withdrawal latency) (male SWISS mice [2]; 1.9 µmol/kg, time 2 h): 2.9 s and 4.1 s and 4.4 s and 3.4 s and 3.5 s and 3.8 s
- CFA-induced inflammatory hyperalgesia (paw withdrawal latency) (male SWISS mice [2]; 1.9 µmol/kg, time 3 h): 3.5 seconds (2×) and 3.8 seconds and 4.4 seconds and 3.3 seconds and 2.9 seconds
- CFA-induced inflammatory hyperalgesia (paw withdrawal latency) (male SWISS mice [2]; 1.9 µmol/kg, time 4 h): 2.5 seconds and 2.6 seconds and 2.7 seconds (2×) and 2.8 seconds and 3.5 seconds
- CFA-induced inflammatory hyperalgesia (paw withdrawal latency) (male SWISS mice [2]; 1.9 µmol/kg, time BL): 10.6 s and 9.8 s and 10 s and 10.4 s and 10.3 s
- return of thermal nociceptive thresholds to basal values (male SWISS mice [2]; after drug administration): 2 h
- time of peak effect (male SWISS mice [2]; s.c.): 15 min
- effect on thermal sensitivity / paw withdrawal latencies (male SWISS mice [2]; s.c., male mice): significantly reduced thermal sensitivity
- reduction of cAMP inhibition potency (human KOR D138A; D138A vs WT, authors' response): 17 fold
- Emax (human KOR D138A; KOR D138A, normalized to salvinorin A): 105 ± 2.4%
- Emax (human KOR H304A [3]): 34.5 ± 1.18%
- Formalin test (duration of pain behaviour) (male SWISS mice [4]; 0.8 µmol/kg): 234 s and 278 s and 189 s and 251 s and 382 s and 247 s
- Formalin test (duration of pain behaviour) (male SWISS mice [4]; 1.9 µmol/kg): 208 s and 50 s and 189 s and 169 s and 167 s and 252 s
- antagonism of antinociception by nor-BNI (male SWISS mice [4]; nor-BNI 13.6 µmol kg^−1 s.c. pretreatment): significantly reversed the antinociceptive response
- antinociceptive ED50 (male SWISS mice [4]; s.c., male mice): 1.89 µmol/kg
- effect on pain behavior (male SWISS mice [4]; s.c., male mice): dose-dependent reduction in the pain behavior
- Emax (mouse KOR): 41%
- Emax (human KOR [5]): 30%
- Emax (human KOR [6]): 83%
- Emax (human KOR F293A): 85.55 ± 0.78%
- highest potency (mouse KOR, Gαz): picomolar range
- serum stability, amount remaining, Figure S15 ([7]; Time (min) 0): 100
- stable in serum [7, 8]: at least 50 h
- remaining at 5 min, 50 µM ([7]; human, human serum, serum stability, amount remaining, Figure S15, Time (min) 5): 94%
- remaining at 10 min, 50 µM ([7]; human, human serum, serum stability, amount remaining, Figure S15, Time (min) 10): 94%
- remaining at 20 min, 50 µM ([7]; human, human serum, serum stability, amount remaining, Figure S15, Time (min) 20): 99%
- remaining at 40 min, 50 µM ([7]; human, human serum, serum stability, amount remaining, Figure S15, Time (min) 40): 96%
- remaining at 1 h, 50 µM ([7]; human, human serum, serum stability, amount remaining, Figure S15, Time (min) 60): 106%
- remaining at 2 h, 50 µM ([7]; human, human serum, serum stability, amount remaining, Figure S15, Time (min) 120): 98%
- remaining at 4 h, 50 µM ([7]; human, human serum, serum stability, amount remaining, Figure S15, Time (min) 240): 101%
- remaining at 6 h, 50 µM ([7]; human, human serum, serum stability, amount remaining, Figure S15, Time (min) 360): 99%
- remaining at 24 h, 50 µM ([7]; human, human serum, serum stability, amount remaining, Figure S15, Time (min) 1440): 98%
- remaining at 48 h, 50 µM ([7]; human, human serum, serum stability, amount remaining, Figure S15, Time (min) 2880): 96%
- remaining at 48 h, 50 µM ([7]; human, human serum, serum stability, remaining intact, after 48 h, 37 °C): > 95%
